IC50 data for 32 compounds are collected here from US11998539B2, “Substituted aminoquinolones as DGKalpha inhibitors for immune activation” (Bayer Aktiengesellschaft, priority 2019, dated 2024).

The experiment deals with DGKα (Homo sapiens (Human), UniProt P23743). As to the kind of experiment: Human DGKα kinase activity inhibition assay (ADP-Glo). Format: biochemical. The conditions noted are these: recombinant full-length human DGKα, 55 μM ATP, 7 μM 1,2-dioleoyl-sn-glycerol, read-out: IC50 values of examples in in vitro human DGKa kinase activity inhibition assays. The essentials: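 Recombinant full-length human DGKα (C-terminal FLAG, from insect cells) phosphorylated 1,2-dioleoyl-sn-glycerol presented in octyl-glucopyranoside micelles. ADP formed was quantified by ADP-Glo luminescence. Compounds were added from 100-fold DMSO stocks.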
DGKα, sequence (P23743 other isoform, or with tags, fused parts or gaps): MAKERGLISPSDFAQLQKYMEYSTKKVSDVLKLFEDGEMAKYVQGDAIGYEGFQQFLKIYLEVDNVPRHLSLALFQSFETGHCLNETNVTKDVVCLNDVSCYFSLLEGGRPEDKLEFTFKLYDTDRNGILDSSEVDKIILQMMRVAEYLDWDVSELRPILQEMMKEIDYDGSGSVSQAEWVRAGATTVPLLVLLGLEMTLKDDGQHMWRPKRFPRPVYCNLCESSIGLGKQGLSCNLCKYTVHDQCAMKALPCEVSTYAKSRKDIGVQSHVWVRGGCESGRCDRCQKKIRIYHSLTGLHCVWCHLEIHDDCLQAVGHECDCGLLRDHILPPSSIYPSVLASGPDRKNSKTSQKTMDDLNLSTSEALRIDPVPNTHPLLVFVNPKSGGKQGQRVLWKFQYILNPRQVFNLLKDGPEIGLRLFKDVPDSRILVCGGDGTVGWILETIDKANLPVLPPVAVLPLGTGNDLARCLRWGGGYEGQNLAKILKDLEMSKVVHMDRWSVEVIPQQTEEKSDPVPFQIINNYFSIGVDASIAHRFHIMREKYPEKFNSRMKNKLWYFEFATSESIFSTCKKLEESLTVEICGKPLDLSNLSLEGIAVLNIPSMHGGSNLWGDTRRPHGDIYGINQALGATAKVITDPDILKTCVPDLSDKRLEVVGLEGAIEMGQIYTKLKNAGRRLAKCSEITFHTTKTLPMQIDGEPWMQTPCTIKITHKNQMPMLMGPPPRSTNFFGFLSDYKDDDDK
A general note: ADP-Glo turns the ADP formed in a reaction into a luminescent signal.
Broadly, the IC50 is the concentration that gives 50% inhibition. For the compound `COc1ccc2c(c1)c(N1CCC(c3nc(-c4cccc(C)c4)no3)CC1)c(C#N)c(=O)n2C` [Example 436, 6-methoxy-1-methyl-4-{4-[3-(3-methylphenyl)-1,2,4-oxadiazol-5-yl]piperidin-1-yl}-2-oxo-1,2-dihydroquinoline-3-carbonitrile], the IC50 was found to be 32 nM.
`Cn1c(=O)c(C#N)c(N2CCC(c3ccc(Oc4ccccc4)cc3)CC2)c2ccccc21` [Example 56, 1-methyl-2-oxo-4-[4-(4-phenoxyphenyl)piperidin-1-yl]-1,2-dihydroquinoline-3-carbonitrile]: the IC50 worked out at 17 nM.
The same measure for `Cn1c(=O)c(C(N)=O)c(N2CCC(c3nnc(-c4ccccc4)o3)CC2)c2cc(Br)ccc21` [Example 524, 6-bromo-1-methyl-2-oxo-4-[4-(5-phenyl-1,3,4-oxadiazol-2-yl)piperidin-1-yl]-1,2-dihydroquinoline-3-carboxamide]: 45 nM.
Then `COc1ccc(-c2noc(C3CCN(c4c(C#N)c(=O)n(C)c5ccccc45)CC3)n2)cc1` [Example 349, 4-{4-[3-(4-methoxyphenyl)-1,2,4-oxadiazol-5-yl]piperidin-1-yl}-1-methyl-2-oxo-1,2-dihydroquinoline-3-carbonitrile], with 15 nM; and `Cc1ccccc1-c1nnc(C2CCN(c3c(C#N)c(=O)n(C)c4ccc(Br)cc34)CC2)o1` [Example 442, 6-bromo-1-methyl-4-{4-[5-(2-methylphenyl)-1,3,4-oxadiazol-2-yl]piperidin-1-yl}-2-oxo-1,2-dihydroquinoline-3-carbonitrile], with 15 nM; and `Cc1cccc(-c2nnc(C3CCN(c4c(C#N)c(=O)n(C)c5ccc(Br)cc45)CC3)o2)c1` [Example 443, 6-bromo-1-methyl-4-{4-[5-(3-methylphenyl)-1,3,4-oxadiazol-2-yl]piperidin-1-yl}-2-oxo-1,2-dihydroquinoline-3-carbonitrile], with 9.1 nM.
Then `Cc1ccc2oc(C3CCN(c4c(C#N)c(=O)n(C)c5ccc(Br)cc45)CC3)nc2c1` [Example 396, 6-bromo-1-methyl-4-[4-(5-methyl-1,3-benzoxazol-2-yl)piperidin-1-yl]-2-oxo-1,2-dihydroquinoline-3-carbonitrile], with 0.9 nM; and `COCCNc1cc2c(cc1C)c(N1CCC(c3nc4cc(C)ccc4o3)CC1)c(C#N)c(=O)n2C` [Example 547, 7-[(2-methoxyethyl)amino]-1,6-dimethyl-4-[4-(5-methyl-1,3-benzoxazol-2-yl)piperidin-1-yl]-2-oxo-1,2-dihydroquinoline-3-carbonitrile], with 0.6 nM.
Regarding `Cc1c(C#N)cccc1C1CCN(c2c(C#N)c(=O)n(C)c3ccccc23)CC1` [Example 64, 4-[4-(3-cyano-2-methylphenyl)piperidin-1-yl]-1-methyl-2-oxo-1,2-dihydroquinoline-3-carbonitrile], the IC50 turned out to be 73 nM.
The same measure for `Cn1c(=O)c(C#N)c(N2CCC(c3cccc(S(C)(=O)=O)c3)CC2)c2ccccc21` [Example 80, 4-{4-[3-(methanesulfonyl)phenyl]piperidin-1-yl}-1-methyl-2-oxo-1,2-dihydroquinoline-3-carbonitrile]: 333 nM.
Take `COc1ccccc1-c1csc(C2CCN(c3c(C(N)=O)c(=O)n(C)c4ccccc34)CC2)n1` [Example 477, 4-{4-[4-(2-methoxyphenyl)-1,3-thiazol-2-yl]piperidin-1-yl}-1-methyl-2-oxo-1,2-dihydroquinoline-3-carboxamide]: the IC50 is 3.9 nM.
Then `Cn1c(=O)c(C#N)c(N2CCC(C)(c3nc4ccc(OC(F)(F)F)cc4o3)CC2)c2ccccc21` [Example 20, 1-methyl-4-{4-methyl-4-[6-(trifluoromethoxy)-1,3-benzoxazol-2-yl]piperidin-1-yl}-2-oxo-1,2-dihydroquinoline-3-carbonitrile], with 1.5 nM; and `Cc1nc2cc(C3CCN(c4c(C#N)c(=O)n(C)c5ccccc45)CC3)ccc2s1` [Example 346, 1-methyl-4-[4-(2-methyl-1,3-benzothiazol-5-yl)piperidin-1-yl]-2-oxo-1,2-dihydroquinoline-3-carbonitrile], with 28 nM; and `Cc1ccc2oc(C3(C)CCN(c4c(C#N)c(=O)n(C)c5c(Br)cccc45)CC3)nc2c1` [Example 158, 8-bromo-1-methyl-4-[4-methyl-4-(5-methyl-1,3-benzoxazol-2-yl)piperidin-1-yl]-2-oxo-1,2-dihydroquinoline-3-carbonitrile], with 304 nM.
As to `Cn1c(=O)c(C#N)c(N2CCC(c3nc4ccc(Cl)cc4o3)CC2)c2ccccc21` [Example 9, 4-[4-(6-chloro-1,3-benzoxazol-2-yl)piperidin-1-yl]-1-methyl-2-oxo-1,2-dihydroquinoline-3-carbonitrile], the IC50 was found to be 3.3 nM.
The same measure for `Cn1c(=O)c(C#N)c(N2CCC(c3ccc4c(c3)C(C)(C)CN4)CC2)c2ccccc21` [Example 356, 4-[4-(3,3-dimethyl-2,3-dihydro-1H-indol-5-yl)piperidin-1-yl]-1-methyl-2-oxo-1,2-dihydroquinoline-3-carbonitrile]: 5.1 nM; for `Cc1ccc2oc(C3(C)CCN(c4c(C#N)c(=O)n(C)c5cc(O)c(Br)cc45)CC3)nc2c1` [Example 423, 6-bromo-7-hydroxy-1-methyl-4-[4-methyl-4-(5-methyl-1,3-benzoxazol-2-yl)piperidin-1-yl]-2-oxo-1,2-dihydroquinoline-3-carbonitrile]: 1 nM; for `COc1cccc(C2CCN(c3c(C#N)c(=O)n(C)c4ccccc34)CC2)c1` [Example 55, 4-[4-(3-methoxyphenyl)piperidin-1-yl]-1-methyl-2-oxo-1,2-dihydroquinoline-3-carbonitrile]: 14 nM.
Then `Cn1c(=O)c(C#N)c(N2CCC(c3ccccc3F)CC2)c2ccccc21` [Example 60, 4-[4-(2-fluorophenyl)piperidin-1-yl]-1-methyl-2-oxo-1,2-dihydroquinoline-3-carbonitrile], with 33 nM; and `COc1cc2c(cc1Br)c(N1CCC(c3nc(-c4ccccc4C)no3)CC1)c(C#N)c(=O)n2C` [Example 530, 6-bromo-7-methoxy-1-methyl-4-{4-[3-(2-methylphenyl)-1,2,4-oxadiazol-5-yl]piperidin-1-yl}-2-oxo-1,2-dihydroquinoline-3-carbonitrile], with 1.8 nM; and `Cn1c(=O)c(C#N)c(N2CCC(C)(c3nc4ccccc4o3)CC2)c2ccc(F)cc21` [Example 235, 4-[4-(1,3-benzoxazol-2-yl)-4-methylpiperidin-1-yl]-7-fluoro-1-methyl-2-oxo-1,2-dihydroquinoline-3-carbonitrile], with 2.9 nM.
The same measure for `COCCc1ccc2oc(C3CCN(c4c(C#N)c(=O)n(C)c5ccccc45)CC3)nc2c1` [Example 283, 4-{4-[5-(2-methoxyethyl)-1,3-benzoxazol-2-yl]piperidin-1-yl}-1-methyl-2-oxo-1,2-dihydroquinoline-3-carbonitrile]: 6.8 nM.
Regarding `Cn1c(=O)c(C#N)c(N2CCC(c3nc4ccccc4s3)CC2)c2cc(C#N)ccc21` [Example 176, 4-[4-(1,3-benzothiazol-2-yl)piperidin-1-yl]-1-methyl-2-oxo-1,2-dihydroquinoline-3,6-dicarbonitrile], the IC50 is 3 nM.
The same measure for `COc1ccc2c(N3CCC(c4nc5ccccc5s4)CC3)c(C#N)c(=O)n(C)c2c1` [Example 240, 4-[4-(1,3-benzothiazol-2-yl)piperidin-1-yl]-7-methoxy-1-methyl-2-oxo-1,2-dihydroquinoline-3-carbonitrile]: 2.5 nM.
The same measure for `COc1ccccc1C1CCN(c2c(C#N)c(=O)n(C)c3ccccc23)CC1` [Example 52, 4-[4-(2-methoxyphenyl)piperidin-1-yl]-1-methyl-2-oxo-1,2-dihydroquinoline-3-carbonitrile]: 8.8 nM.
Then `COc1ccc2c(c1)c(N1CCC(c3nc(-c4ccccc4C)no3)CC1)c(C#N)c(=O)n2C` [Example 438, 6-methoxy-1-methyl-4-{4-[3-(2-methylphenyl)-1,2,4-oxadiazol-5-yl]piperidin-1-yl}-2-oxo-1,2-dihydroquinoline-3-carbonitrile], with 31 nM; and `Cc1ccc2oc(C3(C)CCN(c4c(C#N)c(=O)n(C)c5cc(C)ccc45)CC3)nc2c1` [Example 220, 1,7-dimethyl-4-[4-methyl-4-(5-methyl-1,3-benzoxazol-2-yl)piperidin-1-yl]-2-oxo-1,2-dihydroquinoline-3-carbonitrile], with 1.7 nM.
Turning to `Cc1cccc2nc(C3CCN(c4c(C#N)c(=O)n(C)c5ccccc45)CC3)oc12` [Example 15, 1-methyl-4-[4-(7-methyl-1,3-benzoxazol-2-yl)piperidin-1-yl]-2-oxo-1,2-dihydroquinoline-3-carbonitrile], the IC50 amounted to 11 nM.
Then `COCCOc1ccc2c(N3CCC(c4nc5cc(C)ccc5o4)CC3)c(C#N)c(=O)n(C)c2c1` [Example 383, 7-(2-methoxyethoxy)-1-methyl-4-[4-(5-methyl-1,3-benzoxazol-2-yl)piperidin-1-yl]-2-oxo-1,2-dihydroquinoline-3-carbonitrile], with 5.1 nM.
Then `Cc1ccc2oc(C3CCN(c4c(C#N)c(=O)n(C)c5ccccc45)CC3C)nc2c1` (mixture of isomers) [Example 111, 1-methyl-4-[3-methyl-4-(5-methyl-1,3-benzoxazol-2-yl)piperidin-1-yl]-2-oxo-1,2-dihydroquinoline-3-carbonitrile, mixture of stereoisomers], with 3.2 nM; and `Cc1ccc2nc(C3CCN(c4c(C(N)=O)c(=O)n(C)c5ccc(C)cc45)CC3)oc2c1` [Example 196, 1,6-dimethyl-4-[4-(6-methyl-1,3-benzoxazol-2-yl)piperidin-1-yl]-2-oxo-1,2-dihydroquinoline-3-carboxamide], with 3.1 nM.
Regarding `Cc1ccc2oc(C3(C)CCN(c4c(C(N)=O)c(=O)n(C)c5ccccc45)CC3)nc2c1` [Example 302, 1-methyl-4-[4-methyl-4-(5-methyl-1,3-benzoxazol-2-yl)piperidin-1-yl]-2-oxo-1,2-dihydroquinoline-3-carboxamide], the IC50 amounted to 1.1 nM.
